Experiment: Solubility of benzocaine in ethyl alcohol with and without menthol
Type: physicochemical
Excerpt: While not wishing to be bound to any theory, it appears that, in embodiments containing the medicament, for example benzocaine, menthol improves the clarity of the composition by increasing the solubility of medicament in the gel composition. This belief is based on the observation that the solubility of benzocaine in ethyl alcohol containing menthol is higher than the solubility of benzocaine in ethyl alcohol without menthol. It is believed that menthol can enhance the interaction between polymethacrylate, such as Eudragit™ RS, and a medicament, such as benzocaine. This belief is based on an interaction study conducted with a Differential Scanning Calorimeter (DSC). Further, while not wishing to be bound to any theory, it appears that one or both of the polymers may be forming a complex with the medicament drug in the presence of menthol and enhancing the clarity of the composition.

solubility of benzocaine in ethyl alcohol containing menthol versus without menthol: higher
SMILES: CCOC(=O)c1ccc(N)cc1 [benzocaine]

— patent publication US20040028744A1, “Mucoadhesive composition” (priority 2002, published 2004)
